Measured values as given in ChEMBL document CHEMBL4017474, “A calcineurin antifungal strategy with analogs of FK506” (Bioorg Med Chem Lett, 2017).
In brackets after ≈: the same amount, converted by molar mass. Activity calls are given as the source filed them. The calls are words filed in the database; no cut-off is given here.

Legend:
[1] = molecular target: T1, Peptidyl-prolyl cis-trans isomerase FKBP1A (Homo sapiens, UniProt P62942); assay: Antagonist activity at human FKBP12 measured after 30 mins by fluorescein labelled SLF tracer based fluorescence polarization assay
T1 sequence (P62942 whole entry): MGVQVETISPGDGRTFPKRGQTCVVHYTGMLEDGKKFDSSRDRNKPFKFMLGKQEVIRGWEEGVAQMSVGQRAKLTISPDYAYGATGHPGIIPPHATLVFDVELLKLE

[2] = molecular target: T1, Peptidyl-prolyl cis-trans isomerase FKBP1A; assay: (§1) Antagonist activity at recombinant human N-terminal His6-tagged FKBP12 expressed in Escherichia coli assessed as inhibition of FKBP12 binding to calcineurin at 5 uL using […] pretreated for 1 hr followed by substrate addition measured after 1 hr by biomol green dye based spectrophotometric method
Jurkat = assay: Immunosuppressive activity in PMA/ionomycin stimulated human Jurkat T cells assessed as suppression of IL2 production pretreated for 15 to 30 mins followed by PMA/ionomycin addition measured after 18 to 20 hrs by ELISA; format: cell-based
PBMC [3] = assay: Reversal of FK506-induced inhibition of cell proliferation in concanavalin A stimulated human PBMC at 1 uM measured after 72 hrs by CellTiter-Glo assay relative to control; format: functional; set-up: scale not given: the % may be the effect or the level left
PBMC [4] = assay: Antiproliferative activity against concanavalin A stimulated human PBMC at 1 to 2 ug/ml measured after 72 hrs by CellTiter-Glo assay; format: cell-based
Aspergillus fumigatus [5] = assay: Antifungal activity against Aspergillus fumigatus assessed as spore germination at 12.5 ug/ml measured after 48 hrs in presence of FK506 by broth dilution method relative to control; format: functional
Aspergillus fumigatus [6] = assay: Antifungal activity against Aspergillus fumigatus up to 25 ug/ml measured after 48 hrs by broth dilution method; format: functional
HepG2 = assay: Cytotoxicity against human HepG2 cells; format: cell-based
Vero 76 = assay: Cytotoxicity against African green monkey Vero 76 cells; format: cell-based; conditions: Chlorocebus sabaeus
[7] = Clearance in mouse at 3 mg/kg, iv; format: ADME, organism-based; conditions: in vivo
[8] = Volume of distribution at steady state in mouse at 3 mg/kg, iv; format: ADME, organism-based; conditions: in vivo, read-out: Vdss
[9] = Terminal half-life in mouse at 3 mg/kg, iv; format: ADME, organism-based; conditions: in vivo, read-out: beta t1/2 (converted)
[10] = AUClast in mouse at 3 mg/kg, iv; format: ADME, organism-based; set-up: dose 3 mg/kg, time 0 - last, route intravenous; conditions: in vivo
[11] = Tmax in mouse at 10 mg/kg, po; format: ADME, organism-based; conditions: in vivo
[12] = Cmax in mouse at 10 mg/kg, po; format: ADME, organism-based; set-up: dose 10 mg/kg, route oral; conditions: in vivo
[13] = AUClast in mouse at 10 mg/kg, po; format: ADME, organism-based; set-up: dose 10 mg/kg, time 0 - last, route oral; conditions: in vivo
PBMC [14] = assay: Permeability across human PBMC at 1 uM; format: ADME, cell-based
[15] = Antagonist activity at Aspergillus fumigatus FKBP12 measured after 30 mins by fluorescein labelled SLF tracer based fluorescence polarization assay
Cryptococcus neoformans = assay: Antifungal activity against Cryptococcus neoformans by broth macrodilution method; format: functional
Aspergillus fumigatus [16] = assay: Antifungal activity against Aspergillus fumigatus by broth macrodilution method; format: functional
[17] = molecular target: T1, Peptidyl-prolyl cis-trans isomerase FKBP1A; assay: as §1, with “of FK506 mediated” for “of”, “calcineurin” for “calcineurin at 5 uL”

CO[C@H]1C[C@@H](C)C/C(C)=C/[C@@H](CCCSCCO)C(=O)C[C@H](O)[C@@H](C)[C@@H](/C(C)=C/[C@@H]2CC[C@@H](O)[C@H](OC)C2)OC(=O)[C@@H]2CCCCN2C(=O)C(=O)[C@]2(O)O[C@H]1[C@@H](OC)C[C@H]2C
IC50 [1]: 27 nM
inhibition [2]: inactive
IC50 (Jurkat): > 10000 nM
Activity (PBMC [3]): 96.5%
Activity (PBMC [4]): Non-Toxic
Activity (Aspergillus fumigatus [5]): 37.5%
Activity (Aspergillus fumigatus [6]): inactive
IC50 (HepG2): > 100000 nM
IC50 (Vero 76): > 100000 nM
clearance [7]: 22.8 mL/min/kg
Vd [8]: 1.17 L/kg
half-life [9]: 47.6 min
AUC(0-t) [10]: 2110 ng·h/mL
Tmax [11]: 30 min
Cmax [12]: 1640 ng/mL
AUC(0-t) [13]: 2710 ng·h/mL
permeability (PBMC [14]): 100%

C=CC[C@@H]1/C=C(\C)C[C@H](C)C[C@H](OC)[C@H]2O[C@@](O)(C(=O)C(=O)N3CCCC[C@H]3C(=O)O[C@H](/C(C)=C/[C@@H]3CC[C@@H](O)[C@H](OC)C3)[C@H](C)[C@@H](O)CC1=O)[C@H](C)C[C@@H]2OC [TACROLIMUS ANHYDROUS]
IC50 [15]: 18.4 nM
inhibition [2]: inactive
IC50 (Jurkat): 360 nM
IC50 (HepG2): > 100000 nM
IC50 (Vero 76): > 100000 nM
clearance [7]: 29.5 mL/min/kg
Vd [8]: 1.8 L/kg
half-life [9]: 57.1 min
AUC(0-t) [10]: 1620 ng·h/mL
MIC (Cryptococcus neoformans): 0.01 µg/mL (≈ 0.0124 µM)
MIC (Aspergillus fumigatus [16]): 0.025 µg/mL (≈ 0.0311 µM)

CO[C@H]1C[C@@H](C)C/C(C)=C/[C@@H](CC(=O)N2CCN(C)CC2)C(=O)C[C@H](O)[C@@H](C)[C@@H](/C(C)=C/[C@@H]2CC[C@@H](O)[C@H](OC)C2)OC(=O)[C@@H]2CCCCN2C(=O)C(=O)[C@]2(O)O[C@H]1[C@@H](OC)C[C@H]2C
IC50 [1]: 12.6 nM
IC50 [15]: 16.8 nM
inhibition [2]: inactive
IC50 [17]: 1100 nM
IC50 (Jurkat): > 10000 nM
Activity (PBMC [3]): 102.8%
Activity (PBMC [4]): Non-Toxic
Activity (Aspergillus fumigatus [5]): 43.1%
Activity (Aspergillus fumigatus [6]): inactive
IC50 (HepG2): > 100000 nM
IC50 (Vero 76): > 100000 nM
permeability (PBMC [14]): 100%
